In ChEMBL document CHEMBL6087395, “NGT: Generative AI with Synthesizability Guarantees Discovers MC2R Inhibitors from a Tera-Scale Virtual Screen” (J Med Chem, 2024):
pEC50: −log10 of the molar value.

How the values were obtained:
Melanocortin receptor 3 = Melanocortin receptor 3 (Homo sapiens, UniProt P41968); assay: Antagonist activity at human MC3 receptor expressed in HEK293 cells assessed as inhibition of ACTH-induced cAMP accumulation measured after 70 mins incubation by fluorescence analysis; assay type: functional, cell-based
Chain of Melanocortin receptor 3 (P41968 whole entry): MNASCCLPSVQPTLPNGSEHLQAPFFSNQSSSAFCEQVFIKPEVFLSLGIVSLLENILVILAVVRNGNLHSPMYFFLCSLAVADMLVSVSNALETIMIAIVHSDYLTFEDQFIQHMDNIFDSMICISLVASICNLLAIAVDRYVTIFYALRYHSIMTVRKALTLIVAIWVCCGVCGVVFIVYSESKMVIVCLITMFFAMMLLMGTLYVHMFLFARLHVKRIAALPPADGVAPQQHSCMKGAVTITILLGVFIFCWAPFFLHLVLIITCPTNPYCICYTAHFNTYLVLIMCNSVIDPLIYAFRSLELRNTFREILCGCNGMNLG

[1] = Antagonist activity at human MC2 receptor expressed in HEK293 cells assessed as inhibition of ACTH-induced cAMP accumulation measured after 70 mins incubation by fluorescence analysis; conditions: HEK293, 70 min
Melanocortin receptor 5 = Melanocortin receptor 5 (Homo sapiens, UniProt P33032); assay: Antagonist activity at human MC5 receptor expressed in HEK293 cells assessed as inhibition of ACTH-induced cAMP accumulation measured after 70 mins incubation by fluorescence analysis; assay type: functional, cell-based
Chain of Melanocortin receptor 5 (P33032 whole entry): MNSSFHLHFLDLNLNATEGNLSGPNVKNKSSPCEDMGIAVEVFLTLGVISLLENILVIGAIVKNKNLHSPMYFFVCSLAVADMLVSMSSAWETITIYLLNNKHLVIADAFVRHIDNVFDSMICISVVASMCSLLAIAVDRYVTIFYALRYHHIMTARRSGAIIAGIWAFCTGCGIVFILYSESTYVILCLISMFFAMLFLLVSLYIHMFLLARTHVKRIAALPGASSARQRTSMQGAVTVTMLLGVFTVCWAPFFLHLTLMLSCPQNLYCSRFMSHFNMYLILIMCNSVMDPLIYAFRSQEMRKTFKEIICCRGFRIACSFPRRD

Melanocortin receptor 4 = Melanocortin receptor 4 (Homo sapiens, UniProt P32245); assay: Antagonist activity at human MC4 receptor expressed in HEK293 cells assessed as inhibition of ACTH-induced cAMP accumulation measured after 70 mins incubation by fluorescence analysis; assay type: functional, cell-based
Chain of Melanocortin receptor 4 (P32245 whole entry): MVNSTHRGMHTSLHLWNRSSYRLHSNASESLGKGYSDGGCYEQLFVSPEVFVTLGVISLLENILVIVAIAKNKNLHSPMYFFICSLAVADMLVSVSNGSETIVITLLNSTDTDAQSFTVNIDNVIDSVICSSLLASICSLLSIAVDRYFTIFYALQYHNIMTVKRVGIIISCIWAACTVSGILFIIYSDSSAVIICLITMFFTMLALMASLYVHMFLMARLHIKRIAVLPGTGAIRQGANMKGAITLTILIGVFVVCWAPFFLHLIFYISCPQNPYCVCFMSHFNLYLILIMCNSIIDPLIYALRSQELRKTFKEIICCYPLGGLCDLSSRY

Structure (SMILES) | pEC50 (Melanocortin receptor 3) | pEC50 [1] | pEC50 (Melanocortin receptor 5) | pEC50 (Melanocortin receptor 4)
COc1ccc(C(CN(C)C)NC(=O)COc2ccc(-c3cccc4c3OCC4)cc2Cl)cc1 (stereo not given) | 4.43 | 5.39 | 4.89 | 4.51
CC1CC(N2CCCC2)CN1C(=O)c1cc(O)cc(-c2cc(Cl)ccc2F)c1 (stereo not given) | 4.03 | 5.17 | 3.81 | 3.37
O=C1NCCOc2ccc(CNCC3(c4ccc(C=C5CCSCC5)s4)CCC3)cc21 | 4.48 | 4.96 | 4.51 | 4.49
CCCN1CC(NC(=O)[C@@H]2C[C@H]2c2cccc(-c3cc(Cl)ccc3OC)c2Cl)C1 | 4.72 |  |  | 
COc1cc(C)c(-c2c(C)c(C)c(C(=O)NCC3CCCN3CCCO)c(C)c2C)cc1C (stereo not given) | 3.81 |  | 3.82 | 
Cc1ccc(-c2cc(Cl)cs2)cc1C1(C(=O)NC2CN(C3CCC3)C2)CC1 |  |  | 4.80 | 
COCCNC(=O)C(C1CC2(C1)CC21CCC1)N(C(=O)c1cn(C)cn1)C1CCCN(c2cccc(C)c2)C1 (stereo not given) | 4.49 | 5.15 | 4.14 | 4.48
O=C(NCC(F)F)C(C1CC2(C1)CC21CCC1)N(C(=O)c1cc2c(cn1)CCCC2)[C@H]1C[C@@H](N2CCCC2)C1 (stereo not given in full) | 4.30 | 4.42 | 3.99 | 4.44
CCc1ccc(-c2cc(CNC3CCN(c4ccccc4C(N)=O)C3)c(OC)cc2F)s1 (stereo not given) | 4.48 |  |  | 
